The values below come from patent US6448273B1, “Orally active iron (III) chelators” (BTG International Limited, priority 1997, dated 2002).

Structures can show the parent of a compound that is named as a salt. Where two headings read alike, the source gives them in different places.

Data set [1] in a line: Distribution coefficient DpH7.4 (Kpart), octanol/MOPS pH 7.4. The data set is classed as physicochemical. From the text: The requirements for orally active chelators are set out in Table 4 of Hider et al as (i) good absorption from tile gastrointestinal tract, (ii) efficient liver extraction, (iii) poor entry into peripheral cells such as thymus, muscle, heart and bone marrow and (iv) poor ability to penetrate the blood-brain barrier and maternal/placental barriers.

Data set [2] in a line: pM for Iron III (affinity for iron as Fe III). The data set is classed as physicochemical. To be noted: negative log ferric ion concentration; total iron 10^-6 M, ligand 10^-5 M. An excerpt:
The present inventors now have provided a group of 3-hydroxypyridin-4-one iron chelators having improved properties as compared to the prior art as assessed against the criteria set out above. […] Preferred compounds have efficiency of iron mobilisation of in excess of 52% when given orally to rats. […]

A short description of data set [3]: pKa of the ligand. The class given is physicochemical.
Data set [4] in a line: Iron (III) complex stability constant Logβ3. The data set is classed as physicochemical.
Data set [5] can be described thus: Iron III Mobilisation Efficacy Assay in Rat: Oral Administration. To be noted: for Efficacy: iron mobilisation less control. The data set is classed as in vivo. The procedure: Control rats were given an equivalent volume of water. The rats were placed in individual metabolic cages and their urine and faeces collected. One hour after the administration they were allowed access to food, with no restriction on water being made throughout the study period. The investigation was terminated 24 hours after the ^59Fe ferritin administration when rats were sacrificed and their livers and gastrointestinal tracts, including all contents including faeces, were removed for gamma counting.

Where [6] appears, read: method marked (p), first pKa, read-out: pKa, first value (p).
The mark [7] stands for this setting: method marked (p), second pKa, read-out: pKa, second value (p).
The mark [8] stands for this setting: method marked (s), first pKa, read-out: pKa, first value (s).
The mark [9] stands for this setting: method marked (s), second pKa, read-out: pKa, second value (s).

The term pKa denotes the negative logarithm of the acid dissociation constant. `Cc1cc(=O)c(O)c(C(=O)N(C)C)n1C` [CP508, 1,6-Dimethyl-3-hydroxy-4(1H)-pyridinone-2-carboxy-(N,N-dimethyl)-amide hydrochloride]: the “DpH 7.4” value in data set [1] turned out to be 0.16. Besides, the “pMpH 7.45” value in data set [2] worked out at 23.46. The pKa amounted to 2.61 in data set [3] (setting [6]), 8.1 in data set [3] (setting [7]), 2.61 in data set [3] (setting [8]) and 8.1 in data set [3] (setting [9]). Also, in data set [4], the Logβ3 was 35.13.
Consider `CCn1ccc(=O)c(O)c1CO` [CP359, 1-Ethyl-2-hydroxymethyl-3-hydroxy-pyridin-4(1H)-one hydrochloride], for which the “DpH 7.4” value in data set [1] amounted to 0.14. The “pMpH 7.45” value in data set [2] is listed as 20.96. In data set [3] (method marked (s), first pKa), the “pKa, first value (s)” value is reported as 2.88. Besides, in data set [3] (method marked (s), second pKa), the “pKa, second value (s)” value stood at 9.05. The Logβ3 in data set [4] stood at 35.25.
A word on the melting point: it is the temperature, or range, at which the solid turns liquid. For the compound `COCCNC(=O)c1c(O)c(=O)cc(C)n1C` (as salt: hydrochloride) [CP506, 1,6-Dimethyl-3-hydroxy-4(1H)-pyridinone-2-carboxy-(N-2′-methoxyethyl)-amide hydrochloride], the melting point was 204 to 206 °C.
Regarding `Cn1ccc(=O)c(O)c1CO` (as salt: hydrochloride) [CP364, 1-Methyl-2-hydroxymethyl-3-hydroxy-pyridin-4(1H)-one hydrochloride], the melting point was 157 to 159 °C.
With `CC(O)c1c(O)c(=O)ccn1CCCO` (centres unmarked) (as salt: hydrochloride) [CP372, 1-(3-hydroxypropyl)-2-(1-hydroxyethyl)-3-hydroxy-pyridin-4(1H)-one hydrochloride], the melting point was 117 to 120 °C.
Still for that read-out and setting: for `CCC(OC)c1c(O)c(=O)cc(C)n1C` (centres unmarked) (as salt: hydrochloride) [CP375, 1,6-Dimethyl-2-(1-methoxypropyl)-3-hydroxy-pyridin-4(1H)-one hydrochloride] the value was 225 to 227 °C.
Regarding `CCOC(C)c1c(O)c(=O)cc(C)n1C` (centres unmarked) [CP373, 1,6-Dimethyl-2-(1-ethoxyethyl)-3-hydroxy-pyridin-4(1H)-one hydrochloride], in data set [1], the “DpH 7.4” value is 3.32.
Turning to `CCn1ccc(=O)c(O)c1C(C)O` (centres unmarked) [CP365, 1-Ethyl-2-(1-hydroxyethyl)-3-hydroxy-pyridin-4(1H)-one hydrochloride], the “DpH 7.4” value in data set [1] is 0.27. Moreover, the “pMpH 7.45” value in data set [2] worked out at 21.3. In addition, the “pKa, first value (s)” value in data set [3] (method marked (s), first pKa) worked out at 3.11. The “pKa, second value (s)” value in data set [3] (method marked (s), second pKa) was 8.74. In data set [4], this compound yielded a Logβ3 of 34.8.
For the compound `Cn1c(CO)cc(=O)c(O)c1CO` [CP387], the “DpH 7.4” value in data set [1] is on record as 0.04.
Compound `Cc1cc(=O)c(O)c(CO)n1C` (as salt: hydrochloride) [CP360, 1,6-Dimethyl-2-hydroxymethyl-3-hydroxy-pyridin-4(1H)-one hydrochloride] yielded a melting point of 140 to 143 °C.
For the compound `O=C(OCCCn1ccc(=O)c(O)c1CO)c1ccccc1` [CP367, 1-[(3-Benzoyloxy)propyl]-2-hydroxymethyl-3-hydroxy-pyridin-4(1H)-one hydrochloride], the “DpH 7.4” value in data set [1] was found to be 5.61. Moreover, the pKa in data set [3] (setting [6]) worked out at 2.6; in data set [3] (setting [7]), 9.07; in data set [3] (setting [8]), 2.7; in data set [3] (setting [9]), 8.95.
As for `Cc1cc(=O)c(O)c(C(=O)NCCO)n1C` (as salt: hydrochloride) [CP507, 1,6-Dimethyl-3-hydroxy-4(1H)-pyridinone-2-carboxy-(N-2′-hydroxyethyl)-amide hydrochloride], the melting point is 178 to 181 °C.
Regarding `Cc1cc(=O)c(O)c(C(=O)NCCO)n1C` [CP507, 1,6-Dimethyl-3-hydroxy-4(1H)-pyridinone-2-carboxy-(N-2′-hydroxyethyl)-amide hydrochloride], the “DpH 7.4” value in data set [1] is 0.02. Moreover, in data set [2], the “pMpH 7.45” value was found to be 22.73. The pKa was found to be 2.65 in data set [3] (setting [6]), 8.28 in data set [3] (setting [7]), 2.57 in data set [3] (setting [8]) and 8.19 in data set [3] (setting [9]). Moreover, the Logβ3 in data set [4] was 34.63.
As for `O=c1ccn(CCO)c(C(O)c2ccccc2)c1O` (centres unmarked) [Novartis bidentate ligand (3), reference compound], in data set [1], the “DpH 7.4” value amounted to 2.81. For the same compound, in data set [2], the “pMpH 7.45” value turned out to be 23.15. Besides, the pKa in data set [3] (setting [6]) was found to be 2.59; in data set [3] (setting [7]) it was 8.38; in data set [3] (setting [8]), 2.6; in data set [3] (setting [9]), 8.39. This compound had a Logβ3 in data set [4] of 35.57.
On to `Cc1cc(=O)c(O)c(C(=O)NC(C)C)n1C` [CP504, 1,6-Dimethyl-3-hydroxy-4(1H)-pyridinone-2-carboxy-(N-isopropyl)-amide hydrochloride], for which the “DpH 7.4” value in data set [1] was 0.30. In data set [2], the “pMpH 7.45” value came out at 22.46. Further, the pKa in data set [3] (setting [6]) came to 2.81; in data set [3] (setting [7]), 8.74; in data set [3] (setting [8]), 2.64; in data set [3] (setting [9]), 8.56. Besides, the Logβ3 in data set [4] worked out at 35.34.
In the case of `CCn1c(C)cc(=O)c(O)c1COC` (as salt: hydrochloride) [CP370, 1-Ethyl-2-methoxymethyl-3-hydroxy-6-methyl-pyridin-4(1H)-one hydrochloride], the melting point was in the range of 174 to 176 °C.
As for `CCC(OC)c1c(O)c(=O)cc(C)n1C` (centres unmarked) [CP375, 1,6-Dimethyl-2-(1-methoxypropyl)-3-hydroxy-pyridin-4(1H)-one hydrochloride], in data set [1], the “DpH 7.4” value is 3.85. For the same compound, in data set [5] (150 μmol/kg), the “Iron Mobilisation” value turned out to be 40.2 ± 8.5% and the Efficacy was 36.3%. Further, in data set [5] (450 μmol/kg), the “Iron Mobilisation” value is reported as 72.0 ± 8.2% and the Efficacy was found to be 68.1%.
Take `CCOC(C)c1c(O)c(=O)cc(C)n1C` (centres unmarked) (as salt: hydrochloride) [CP373, 1,6-Dimethyl-2-(1-ethoxyethyl)-3-hydroxy-pyridin-4(1H)-one hydrochloride]: the melting point was in the range of 195 to 199 °C.
The same measure, in the same setting: in the case of `CCC(O)c1c(O)c(=O)cc(C)n1C` (centres unmarked) (as salt: hydrochloride) [CP374, 1,6-Dimethyl-2-(1-hydroxypropyl)-3-hydroxy-pyridin-4(1H)-one hydrochloride] it was 221 to 223 °C.
For the compound `Cc1cc(=O)c(O)c(C(=O)N(C)C)n1C` (as salt: hydrochloride) [CP508, 1,6-Dimethyl-3-hydroxy-4(1H)-pyridinone-2-carboxy-(N,N-dimethyl)-amide hydrochloride], the melting point was 219 °C (dec.).
For `CNC(=O)c1c(O)c(=O)cc(C)n1C` (as salt: hydrochloride) [CP502, 1,6-Dimethyl-3-hydroxy-4(1H)-pyridinone-2-carboxy-(N-methyl)-amide hydrochloride], the melting point was 238 °C (dec.).
`COC(C)c1c(O)c(=O)cc(C)n1C` (centres unmarked) (as salt: hydrochloride) [CP363, 1,6-Dimethyl-2-(1-methoxyethyl)-3-hydroxy-pyridin-4(1H)-one hydrochloride]: the melting point lay in the range of 205 to 207 °C.
On the same count and under the same terms, in the case of `Cc1cc(=O)c(O)c(C(C)O)n1C` (centres unmarked) (as salt: hydrochloride) [CP361, 1,6-Dimethyl-2-(1-hydroxyethyl)-3-hydroxy-pyridin-4(1H)-one hydrochloride] it was 208 to 212 °C.
In the case of `COC(C)c1c(O)c(=O)cc(C)n1C` (centres unmarked) [CP363, 1,6-Dimethyl-2-(1-methoxyethyl)-3-hydroxy-pyridin-4(1H)-one hydrochloride], in data set [1], the “DpH 7.4” value was found to be 1.09. For the same compound, the “Iron Mobilisation” value in data set [5] (150 μmol/kg) is reported as 40.7 ± 2.4%; in data set [5] (300 μmol/kg), 66.9 ± 8.7%; in data set [5] (450 μmol/kg) it was 73.5 ± 8.1%. Besides, the Efficacy is 36.8% in data set [5] (150 μmol/kg), 63.0% in data set [5] (300 μmol/kg) and 69.6% in data set [5] (450 μmol/kg). In addition, the pKa in data set [3] (setting [6]) was found to be 3.2; in data set [3] (setting [7]), 9.44; in data set [3] (setting [8]), 3.22; in data set [3] (setting [9]) it was 9.43.
`O=C(OCCCn1ccc(=O)c(O)c1CO)c1ccccc1` (as salt: hydrochloride) [CP367, 1-[(3-Benzoyloxy)propyl]-2-hydroxymethyl-3-hydroxy-pyridin-4(1H)-one hydrochloride] registered a melting point of 142 to 143 °C.
In turn, `CCn1c(C)cc(=O)c(O)c1CO` (as salt: hydrochloride) [CP369, 1-Ethyl-2-hydroxymethyl-3-hydroxy-6-methyl-pyridin-4(1H)-one hydrochloride] had a melting point of 160 to 162 °C.
With `CCn1c(C)cc(=O)c(O)c1COC` [CP370, 1-Ethyl-2-methoxymethyl-3-hydroxy-6-methyl-pyridin-4(1H)-one hydrochloride], in data set [1], the “DpH 7.4” value amounted to 1.08.
Regarding `CCn1ccc(=O)c(O)c1CO` (as salt: hydrochloride) [CP359, 1-Ethyl-2-hydroxymethyl-3-hydroxy-pyridin-4(1H)-one hydrochloride], the melting point was 168 to 169 °C.
`COCc1cc(=O)c(O)c(COC)n1C` (as salt: hydrochloride) [CP388, 2,6-Dimethoxymethyl-1-methyl-3-hydroxypyridin-4(1H)-one hydrochloride] displayed a melting point of 161 to 163 °C.
For `COCc1c(O)c(=O)cc(C)n1C` [CP362], in data set [1], the “DpH 7.4” value was found to be 0.42.
